Measured values published in US12359236B2, “Production of 2-hydroxyacyl-CoAs and derivatives thereof” (Mojia Biotech Pte. Ltd., priority 2019, dated 2025).

B1: OfOxc: oxalyl-CoA decarboxylase from Oxalobacter formigenes (protein, UniProt P40149 1-568, looked up)
Oxalyl-CoA decarboxylase: MSNDDNVELTDGFHVLIDALKMNDIDTMYGVVGIPITNLARMWQDDGQRFYSFRHEQHAGYAASIAGYIEGKPGVCLTVSAPGFLNGVTSLAHATTNCFPMILLSGSSEREIVDLQQGDYEEMDQMNVARPHCKASFRINSIKDIPIGIARAVRTAVSGRPGGVYVDLPAKLFGQTISVEEANKLLFKPIDPAPAQIPAEDAIARAADLIKNAKRPVIMLGKGAAYAQCDDEIRALVEETGIPFLPMGMAKGLLPDNHPQSAAATRAFALAQCDVCVLIGARLNWLMQHGKGKTWGDELKKYVQIDIQANEMDSNQPIAAPVVGDIKSAVSLLRKALKGAPKADAEWTGALKAKVDGNKAKLAGKMTAETPSGMMNYSNSLGVVRDFMLANPDISLVNEGANALDNTRMIVDMLKPRKRLDSGTWGVMGIGMGYCVAAAAVTGKPVIAVEGDSAFGFSGMELETICRYNLPVTVIIMNNGGIYKGNEADPQPGVISCTRLTRGRYDMMMEAFGGKGYVANTPAELKAALEEAVASGKPCLINAMIDPDAGVESGRIKSLNVVSKVGKK
B2: FucO: E. coli 1,2-diol oxidoreductase, added as cell extract (protein, UniProt P0A9S1 1-382, looked up)
Lactaldehyde reductase: MANRMILNETAWFGRGAVGALTDEVKRRGYQKALIVTDKTLVQCGVVAKVTDKMDAAGLAWAIYDGVVPNPTITVVKEGLGVFQNSGADYLIAIGGGSPQDTCKAIGIISNNPEFADVRSLEGLSPTNKPSVPILAIPTTAGTAAEVTINYVITDEEKRRKFVCVDPHDIPQVAFIDADMMDGMPPALKAATGVDALTHAIEGYITRGAWALTDALHIKAIEIIAGALRGSVAGDKDAGEEMALGQYVAGMGFSNVGLGLVHGMAHPLGAFYNTPHGVANAILLPHVMRYNADFTGEKYRDIARVMGVKVEGMSLEEARNAAVEAVFALNRDVGIPPHLRDVGVRKEDIPALAQAALDDVCTGGNPREATLEDIVELYHTAW
modifications: cell extract
notes: E. coli 1,2-diol oxidoreductase, added as cell extract

Key:
Format in all cases: biochemical
[1] = target: Rhodospirillales bacterium URHD0017 2-hydroxyacyl-CoA lyase (RuHACL), wild type, UniProt: A0A1H8YFL8; assay: Kinetics of RuHACL-catalyzed condensation (ligation) of acetone with formyl-CoA; conditions: 0.5 μM purified RuHACL, 1 mM formyl-CoA, acetone varied, 50 mM KPi pH 7.4, 2.5 mM MgCl2, 0.1 mM TPP, room temperature, 1 min; Michaelis-Menten fit
Protocol: 0.5 μM purified RuHACL was incubated with 1 mM formyl-CoA in a reaction mixture also containing 50 mM KPi pH 7.4, 2.5 mM MgCl2, and 0.1 mM TPP. The concentration of acetone was varied, and room temperature reactions were carried out for 1 min. 40 μL samples were quenched by addition of 10 μL 0.5 M NaOH and placed on ice. 12.5 μL of a saturated ammonium sulfate solution acidified with 1% sulfuric acid was added and the samples were analyzed by HPLC for the determination of the initial reaction rates after centrifugation at 20817×g for 15 minutes. […] The apparent kcat of RuHACL on acetone was 2.7±0.8 s^−1 while the KM was 1.57±0.68 M, corresponding to a catalytic efficiency of 1.7±0.9 s^−1 M^−1.

[2] = tested on: Rhodospirillales bacterium URHD0017 2-hydroxyacyl-CoA lyase (RuHACL) variant G390N (RuHACL^G390N); assay: Kinetics of the C1 condensation reaction of the G390N RuHACL mutant on formyl-CoA and formaldehyde; conditions: in vitro, formyl-CoA and formaldehyde as substrates
[3] = tested on: formaldehyde; assay: Cell-free prototyping of one carbon bioconversion pathway with E. coli cell extracts; conditions: for performance of enzyme variant in cell-free glycolic acid pathway: mixed extracts of HACL and ACR variants, formaldehyde as sole carbon source
Protocol: Cell-free reactions for pathway prototyping contained 50 mM KPi pH 7.4, 4 mM MgCl2, 0.1 mM TPP, 2.5 mM CoASH, 5 mM NAD^+, and 50 mM formaldehyde. For time course experiments, 0.1 mM coenzyme B12 was added. Individual cell extract loading was around 4.4 g/L protein (⅛ of the reaction volume), and the amount of protein added to each reaction was normalized with BL21(DE3) extract to ˜26 g/L protein (¾ of the reaction volume). Reactions were incubated at room temperature for one hour unless otherwise specified. ¼ of the reaction volume of saturated ammonium sulfate solution acidified with 1% sulfuric acid was added to terminate the reactions. Samples were centrifuged at 20817×g for 15 minutes and the supernatant analyzed by HPLC or GC-MS as described below. For isotope labeling experiments, 13C formaldehyde (Cambridge Isotope Laboratories, Tewksbury, MA) was used.
We combined extracts of E. coli, prepared as described in the previous example(s), expressing variants of HACL and ACR to rapidly screen for the best performing combinations. […] The combination of LmACR and RuHACL enabled the production of 6.2±0.6 mM glycolic acid in 1 hr. The use of 13C-labeled formaldehyde confirmed that the observed glycolic acid was derived from the C1 substrate, judging by the +2 shift in m/z of the [M-15]^+ ion (FIG. 13C).
Quantification of product and substrate concentrations (formic acid, formaldehyde, glycolic acid, ethylene glycol, ethanol, acetic acid) were determined via HPLC using a Shimadzu Prominence SIL 20 system (Shimadzu Scientific Instruments, Inc., Columbia, MD) equipped with a refractive index detector and an HPX-87H organic acid column (Bio-Rad, Hercules, CA) with operating conditions to optimize peak separation (0.3 ml/min flowrate, 30 mM H2SO4 mobile phase, column temperature 42° C.). Compound identification and analysis was performed by GC-MS using an Agilent 7890B Series Custom Gas Chromatography system equipped with a 5977B Inert Plus Mass Selective Detector Turbo EI Bundle (for identification) and an Agilent HP-5-ms capillary column (0.25 mm internal diameter, 0.25 μm film thickness, 30 m length).

| Molecule | KM of the mutant compared to the wild type [2] | kcat of the mutant compared to the wild type [2] | performance of enzyme variant in cell-free glycolic acid pathway [3] | further results |
| --- | --- | --- | --- | --- |
| CC(C)=O [acetone] |  |  |  | apparent kcat on acetone [1]: 2.7 ± 0.8 s⁻¹ |
| C=O [formaldehyde] | no significant difference | no significant difference |  |  |
| CC(C)(COP(=O)(O)OP(=O)(O)OC[C@H]1O[C@@H](n2cnc3c(N)ncnc32)[C@H](O)[C@@H]1OP(=O)(O)O)[C@@H](O)C(=O)NCCC(=O)NCCSC=O [formyl-CoA] | no significant difference | no significant difference |  |  |
| HsHACL1: 2-hydroxyacyl-CoA lyase HACL1 from Homo sapiens |  |  | enabling product synthesis |  |
| B1 |  |  | capable of catalyzing the pathway |  |
| B2 |  |  |  | ethylene glycol synthesis ([3]; extract added to LmACR+RuHACL pathway): 2.73 ± 0.03 mM; fold increase of ethylene glycol ([3]; from 1.37±0.1 mM to 2.73±0.03 mM): 2 fold |
